These compounds were tested on EAAT2 (assay: EAAT2 expression in mouse brain after single oral dose (semi-quantitative Western blot)). Conditions: mice, single dose by oral gavage, brains harvested at 24 h post-treatment.
Format: in vivo
Description: Mice received a single dose of the compound (n=3/dose) by oral gavage. Brains were harvested at 24 h post-treatment. EAAT2 protein levels were analyzed by semi-quantitative Western blot analysis.
With `O=C(Nc1ccc(-c2ccccn2)nn1)c1ccc(F)cc1` [Example 4, 4-Fluoro-N-(6-(pyridin-2-yl)pyridazin-3-yl)benzamide] the “EAAT2 protein levels in mouse brain” value was “dose-dependently increased EAAT2 levels”.

These compounds were tested on EAAT2 (assay: EAAT2 Cellular Assay: EAAT2 protein levels in PA-EAAT2 cells by Western blot). Conditions: 0.25 μM (concentration that reaches maximum activity), 24 hr, relative to DMSO controls.
Format: cell-based, human
Description: All of the compounds were initially evaluated in PA-EAAT2 cells, a primary astrocyte stably expressing human EAAT2 mRNAs (Kong et al., J Clin Invest. 2014:1255-67). Cells were treated with compound at 0.25 μM, 0.5 μM, 1 μM, 2.5 μM, 5 μM, 10 μM, and 25 μM for 24 hr and then harvested for measuring EAAT2 protein levels by Western blot analysis.
With `O=C(Nc1ccc(-c2ccccn2)nn1)c1cc(F)ccn1` the “Fold increase for EAAT2 at indicated concentration (maximum activity)” value (“Fold increase for EAAT2” below) was 1.7 ± 0.1 (0.25 μM) fold. In the case of `O=C(Nc1ccc(-c2ccccn2)nn1)c1cccc(F)n1`, the “Fold increase for EAAT2” value is reported as 1.6 ± 0.1 (0.25 μM) fold. For `O=C(Nc1ccc(-c2ccccn2)nn1)c1ccc(F)c(Cl)c1`, the “Fold increase for EAAT2” value was 2.2 ± 0.4 (0.25 μM) fold. In the case of `O=C(Nc1ccc(-c2ccccn2)nn1)c1ccc(F)cn1`, the “Fold increase for EAAT2” value is reported as 1.9 ± 0.2 (0.25 μM) fold. In the case of `CNC(=O)COc1ccc(-c2ccccn2)nn1` [drawing 129], the “Fold increase for EAAT2” value is reported as 2.3 ± 0.1 (0.25 μM) fold. `O=S(=O)(Nc1ccc(-c2ccccn2)nn1)c1ccccc1F` was tested, and the “Fold increase for EAAT2” value was 2.6 ± 0.2 (0.25 μM) fold. In the case of `O=C(Nc1ccc(-c2ccccn2)nn1)c1ccc(F)cc1` [drawing 110], the “Fold increase for EAAT2” value is reported as 2.5 ± 0.3 (0.25 μM) fold.

Same assay, conditions: 0.5 μM (concentration that reaches maximum activity), 24 hr, relative to DMSO controls
For `O=S(=O)(Nc1ccc(-c2ccccn2)nn1)c1ccc(F)cc1`, the “Fold increase for EAAT2” value was 2.4 ± 0.2 (0.5 μM) fold. `O=C(Nc1ccc(-c2ccccn2)nn1)c1ncccn1` was tested, and the “Fold increase for EAAT2” value was 1.5 ± 0.1 (0.5 μM) fold. For `O=C(Nc1ccc(-c2ccccn2)nn1)c1cccnn1`, the “Fold increase for EAAT2” value was 1.9 ± 0.1 (0.5 μM) fold. In the case of `CN1CCC(C(=O)Nc2ccc(-c3ccccn3)nn2)CC1`, the “Fold increase for EAAT2” value is reported as 1.7 ± 0.1 (0.5 μM) fold.

Same assay, conditions: 1 μM (concentration that reaches maximum activity), 24 hr, relative to DMSO controls
In the case of `O=C(Nc1ccc(-c2ccccn2)nn1)c1ccc(Cl)cc1`, the “Fold increase for EAAT2” value is reported as 1.5 ± 0.2 (1 μM) fold. `O=C(Nc1ccc(-c2ccccn2)nn1)c1cccc(Cl)c1` was tested, and the “Fold increase for EAAT2” value was 1.5 ± 0.1 (1 μM) fold.

Same assay, conditions: 2.5 μM (concentration that reaches maximum activity), 24 hr, relative to DMSO controls
With `CN(C)CCOc1ccc(-c2ccccn2)nn1` the “Fold increase for EAAT2” value was 2.9 ± 0.2 (2.5 μM) fold. In the case of `c1ccc(-c2ccc(OCc3ncco3)nn2)nc1`, the “Fold increase for EAAT2” value is reported as 1.9 ± 0.1 (2.5 μM) fold.

Same assay, conditions: 5 μM (concentration that reaches maximum activity), 24 hr, relative to DMSO controls
For `CC(Oc1ccc(-c2ccccn2)nn1)c1ccccn1` (centres unmarked), the “Fold increase for EAAT2” value was 1.7 ± 0.1 (5 μM) fold. With `Cn1cncc1COc1ccc(-c2ccccn2)nn1` the “Fold increase for EAAT2” value was 1.7 ± 0.1 (5 μM) fold. With `c1ccc(COc2ccc(-c3ccccn3)nn2)nc1` the “Fold increase for EAAT2” value was 3.0 ± 0.1 (5 μM) fold. In the case of `CN(C)CCNc1ccc(-c2ccccn2)nn1`, the “Fold increase for EAAT2” value is reported as 2.4 ± 0.2 (5 μM) fold. With `O=C(Nc1ccc(-c2ccccn2)nn1)c1ccccc1Cl` the “Fold increase for EAAT2” value was 2.0 ± 0.2 (5 μM) fold. In the case of `CN(C)C(=O)COc1ccc(-c2ccccn2)nn1`, the “Fold increase for EAAT2” value is reported as 2.9 ± 0.2 (5 μM) fold. `c1ccc(-c2ccc(NCCCn3ccnc3)nn2)nc1` was tested, and the “Fold increase for EAAT2” value was 3.3 ± 0.2 (5 μM) fold. With `Cn1ccnc1COc1ccc(-c2ccccn2)nn1` the “Fold increase for EAAT2” value was 1.9 ± 0.1 (5 μM) fold. `O=C(Nc1ccc(-c2ccccn2)nn1)c1cncs1` was tested, and the “Fold increase for EAAT2” value was 1.9 ± 0.1 (5 μM) fold.

Same assay, conditions: 10 μM (concentration that reaches maximum activity), 24 hr, relative to DMSO controls
In the case of `O=C(Nc1ccc(-c2cccnc2)nn1)c1ccc(F)cc1`, the “Fold increase for EAAT2” value is reported as 2.1 ± 0.2 (10 μM) fold. For `COc1ccc(C(=O)Nc2ccc(-c3ccccn3)nn2)cc1`, the “Fold increase for EAAT2” value was 2.1 ± 0.2 (10 μM) fold. In the case of `NC(=O)COc1ccc(-c2ccccn2)nn1`, the “Fold increase for EAAT2” value is reported as 1.8 ± 0.2 (10 μM) fold. `c1ccc(CNc2ccc(-c3ccccn3)nn2)cc1` was tested, and the “Fold increase for EAAT2” value was 3.1 ± 0.3 (10 μM) fold. `O=C(COc1ccc(-c2ccccn2)nn1)N1CCCCC1` was tested, and the “Fold increase for EAAT2” value was 2.6 ± 0.1 (10 μM) fold. `c1ccc(-c2ccc(OCc3nccs3)nn2)nc1` was tested, and the “Fold increase for EAAT2” value was 2.2 ± 0.3 (10 μM) fold. With `Cn1cncc1C(=O)Nc1ccc(-c2ccccn2)nn1` the “Fold increase for EAAT2” value was 1.8± 0.2 (10 μM) fold. For `Cc1ccccc1NC(=O)COc1ccc(-c2ccccn2)nn1`, the “Fold increase for EAAT2” value was 2.4 ± 0.2 (10 μM) fold. For `CN(C(=O)COc1ccc(-c2ccccn2)nn1)c1ccccc1`, the “Fold increase for EAAT2” value was 2.2 ± 0.3 (10 μM) fold. `CNC(=O)COc1ccc(-c2ccccn2)nn1` [drawing 130] was tested, and the “Fold increase for EAAT2” value was 1.8 ± 0.1 (10 μM) fold.

From patent US10787433B2, “Pyridazine derivatives as EAAT2 activators” (THE BRIGHAM AND WOMEN'S HOSPITAL, INC., priority 2016, dated 2020)
